Laboratory results reported in the NIST ThermoML archive (doi:10.1021/je060092t).

Assay: cn = amount concentration of the nth substance listed, in mol/dm3
Details: Liquid, Taylor dispersion method

binary diffusion coefficient (298.15 K, c1 = 0.1) | binary diffusion coefficient (298.15 K, c1 = 0.002) | binary diffusion coefficient (298.15 K, c1 = 0.004) | binary diffusion coefficient (298.15 K, c1 = 0.006) | binary diffusion coefficient (298.15 K, c1 = 0.008) | binary diffusion coefficient (303.15 K, c1 = 0.002) | binary diffusion coefficient (303.15 K, c1 = 0.004) | binary diffusion coefficient (303.15 K, c1 = 0.006) | binary diffusion coefficient (303.15 K, c1 = 0.008) | binary diffusion coefficient (308.15 K, c1 = 0.002) | binary diffusion coefficient (308.15 K, c1 = 0.004) | binary diffusion coefficient (308.15 K, c1 = 0.006) | binary diffusion coefficient (308.15 K, c1 = 0.008) | binary diffusion coefficient (312.15 K, c1 = 0.002) | binary diffusion coefficient (312.15 K, c1 = 0.004) | binary diffusion coefficient (312.15 K, c1 = 0.006) | binary diffusion coefficient (312.15 K, c1 = 0.008) | Compound
1.81e-09 m2/s | – | – | – | – | – | – | – | – | – | – | – | – | – | – | – | – | [Cl-].[K+] [potassium chloride] + O
5.26e-10 m2/s | – | – | – | – | – | – | – | – | – | – | – | – | – | – | – | – | OC[C@H]1O[C@@](CO)(O[C@H]2O[C@H](CO)[C@@H](O)[C@H](O)[C@H]2O)[C@@H](O)[C@@H]1O [D-sucrose] + O
– | 3.24e-10 m2/s | 3.23e-10 m2/s | 3.21e-10 m2/s | 3.18e-10 m2/s | 3.89e-10 m2/s | 3.88e-10 m2/s | 3.81e-10 m2/s | 3.78e-10 m2/s | 4.3e-10 m2/s | 4.28e-10 m2/s | 4.27e-10 m2/s | 4.23e-10 m2/s | 4.56e-10 m2/s | 4.54e-10 m2/s | 4.54e-10 m2/s | 4.53e-10 m2/s | OC[C@H]1O[C@@H]2O[C@H]3[C@H](O)[C@@H](O)[C@@H](O[C@H]4[C@H](O)[C@@H](O)[C@@H](O[C@H]5[C@H](O)[C@@H](O)[C@@H](O[C@H]6[C@H](O)[C@@H](O)[C@@H](O[C@H]7[C@H](O)[C@@H](O)[C@@H](O[C@H]8[C@H](O)[C@@H](O)[C@@H](O[C@H]1[C@H](O)[C@H]2O)O[C@@H]8CO)O[C@@H]7CO)O[C@@H]6CO)O[C@@H]5CO)O[C@@H]4CO)O[C@@H]3CO [β-cyclodextrin] + O
